We go through two molecules from patent US20070280924A1, “Pharmaceutical Preparations For And Treatment Of Ocular Surface and Other Disorders” (priority 2004, published 2007).

The test system of series [1] is human corneal epithelial cell lines (HCE-T and CEPI-17-CI.4) and human conjunctival epithelial cells.
Protocol: Hypromellose, Carbopol or sodium hyaluronate were used to supplement an ocular surface medium at concentrations ranging from 0.0001% to 0.4%. The pH and osmolarity of all of the resultant formulations were controlled and adjusted to be within physiological range. The biophysical properties, i.e. viscosity and surface tension, were determined with a rheometer and an electronic manometer. Two human corneal epithelial cell lines (HCE-T and CEPI-17-CI.4) and two human conjunctival epithelial cells were used to investigate cell proliferation, viability and migration in response to the formulations by means of a luminescence based ATP-assay, a calcein AM/EthD-1 assay and a colony dispersion assay.
For series [2] the following is noted: for comparison; cited from earlier work.

In the case of hypromellose, the Toxicity result in series [1] is “low toxicity”.

In the case of `O` [water], in series [2], the Surface tension result is listed as “about 70 mN/m”.
